# Several values for one entry are separate records, joined by “and”; a condition that tells them apart may be missing. Identical values can stand only once.
# Legend:
# [1] = in vitro; conditions: mouse, plasma
# Experimental: The reactions were stopped by adding 240 μL 90% acetonitrile containing internal standard with subsequent plasma proteins sedimentation by centrifuging at 5796 g for 5 min. Supernatants were analyzed by the HPLC system coupled with a tandem mass spectrometer. The percentage of the test compounds remaining after incubation in plasma and their half-lives (T1/2) were calculated.
# [2] = target: T1, human PTH receptor (PTHR) (Homo sapiens, UniProt Q03431); experiment: Gs bioSens-All control assay; assay type: cell-based; conditions: raw signal, log[PTH]
# T1 construct: expressed in transfected cells; host or cells: HEK293 (HEK293SL) cells, transient co-transfection with the Gαs biosensor
# T1 sequence (Q03431 27-593): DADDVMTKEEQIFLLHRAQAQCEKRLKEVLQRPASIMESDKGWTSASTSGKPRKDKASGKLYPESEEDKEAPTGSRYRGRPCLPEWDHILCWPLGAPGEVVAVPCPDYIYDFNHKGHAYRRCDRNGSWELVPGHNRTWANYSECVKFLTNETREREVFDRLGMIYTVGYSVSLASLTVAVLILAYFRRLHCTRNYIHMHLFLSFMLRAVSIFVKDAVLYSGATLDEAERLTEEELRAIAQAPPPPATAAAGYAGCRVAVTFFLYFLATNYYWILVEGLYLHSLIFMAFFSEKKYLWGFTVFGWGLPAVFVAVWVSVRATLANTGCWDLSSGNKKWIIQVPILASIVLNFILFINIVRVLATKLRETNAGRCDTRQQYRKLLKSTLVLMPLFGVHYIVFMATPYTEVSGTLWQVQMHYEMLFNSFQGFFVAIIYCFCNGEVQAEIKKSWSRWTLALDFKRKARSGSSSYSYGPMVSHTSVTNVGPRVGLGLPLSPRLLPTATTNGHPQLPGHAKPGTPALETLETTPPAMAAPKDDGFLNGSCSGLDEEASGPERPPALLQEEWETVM
# Excerpt: Experimental data were produced in singleton and curves were fitted using the four-parameter logistic non-linear regression model (GraphPad Prism 9). Data are expressed as uBRET.
# [3] = target: hCB1 (Homo sapiens, UniProt P21554); experiment: bioSensAll ebBRET signaling profiling, hCB1; assay type: cell-based; design: host or cells: HEK293SL cells, transient PEI transfection; conditions: for Barr2+GRK2 hCB1 response: Barr2+GRK2 biosensor; for Gi1 hCB1 / GoB hCB1: single replicate values, FigS6a
# Chain of hCB1 (P21554 whole entry): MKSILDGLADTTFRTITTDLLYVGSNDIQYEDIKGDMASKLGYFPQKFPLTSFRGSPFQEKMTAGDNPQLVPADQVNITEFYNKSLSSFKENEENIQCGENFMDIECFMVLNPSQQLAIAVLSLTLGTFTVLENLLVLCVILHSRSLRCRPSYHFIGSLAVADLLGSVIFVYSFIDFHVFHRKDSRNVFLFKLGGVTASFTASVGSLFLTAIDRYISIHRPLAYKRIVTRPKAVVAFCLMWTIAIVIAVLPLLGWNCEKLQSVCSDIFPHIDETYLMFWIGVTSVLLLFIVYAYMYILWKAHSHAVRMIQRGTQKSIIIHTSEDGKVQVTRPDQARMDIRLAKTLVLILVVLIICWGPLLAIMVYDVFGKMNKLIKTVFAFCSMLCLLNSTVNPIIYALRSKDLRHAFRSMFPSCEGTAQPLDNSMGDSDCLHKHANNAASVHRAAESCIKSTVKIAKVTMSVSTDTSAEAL
# [4] = target: T2, CB1 (rCB1) (Rattus norvegicus, UniProt P20272); experiment: Single-point radioligand displacement screen; assay type: binding; conditions: 10 µM, 1 µM or 300 nM by cell colour (not visible)
# T2 sequence (P20272 whole entry): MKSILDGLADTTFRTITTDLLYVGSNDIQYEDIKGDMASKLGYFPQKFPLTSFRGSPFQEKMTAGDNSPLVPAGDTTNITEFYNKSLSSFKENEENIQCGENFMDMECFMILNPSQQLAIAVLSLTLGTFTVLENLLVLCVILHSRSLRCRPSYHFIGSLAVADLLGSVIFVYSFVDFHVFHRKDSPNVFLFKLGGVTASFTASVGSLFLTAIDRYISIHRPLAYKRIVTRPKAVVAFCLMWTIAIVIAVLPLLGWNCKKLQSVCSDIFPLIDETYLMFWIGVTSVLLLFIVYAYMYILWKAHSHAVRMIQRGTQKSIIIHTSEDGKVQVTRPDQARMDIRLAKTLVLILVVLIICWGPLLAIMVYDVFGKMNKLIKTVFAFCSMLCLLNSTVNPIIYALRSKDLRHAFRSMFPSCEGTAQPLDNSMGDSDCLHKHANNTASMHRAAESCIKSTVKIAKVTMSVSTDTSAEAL
# [5] = target: T2, CB1 (rCB1); experiment: Radioligand competition binding, [3H]-CP-55,940, rat brain membranes
compound,measurement,setting,value
"CC(C)[N+](C)(CCOC(=O)C1c2ccccc2Oc2ccccc21)C(C)C [Propantheline, reference compound]",half-life at 1 µM,[1],28 min
same,"remaining at 20 min, 1 µM",[1],75%
same,"remaining at 40 min, 1 µM",[1],50%
same,"remaining at 1 h, 1 µM",[1],31%
same,"remaining at 2 h, 1 µM",[1],6%
PTH,PTH control response,[2]; M -6.22186,5622
same,PTH control response,[2]; M -6.53946,5653
same,PTH control response,[2]; M -6.85696,5394
same,PTH control response,[2]; M -7.17551,5221
same,PTH control response,[2]; M -7.49499,5149
same,PTH control response,[2]; M -7.80694,5011
same,PTH control response,[2]; M -8.11922,4856
same,PTH control response,[2]; M -8.44613,4893
same,PTH control response,[2]; M -8.76448,5167
same,PTH control response,[2]; M -9.07573,5440
same,PTH control response,[2]; M -9.22186,6053
same,PTH control response,[2]; M -9.39794,5806
same,PTH control response,[2]; M -9.68787,6475
same,PTH control response,[2]; M -10.1552,7581
same,PTH control response,[2]; M -10.6199,8362
same,PTH control response,[2]; M -11.0969,9720
same,PTH control response,[2]; M -11.5529,9963
same,PTH control response,[2]; M -12.0177,10394
same,PTH control response,[2]; M -12.4948,10587
same,PTH control response,[2]; M -12.9208,10667
same,PTH control response,[2]; M -13.3979,10336
same,PTH control response,[2]; M -13.8861,10932
same,PTH control response,[2]; M -14,11358 and 10843
Brc1cc2c(cc1Cc1noc(-c3cnn(CC4CC4)c3)n1)OCO2 [‘5424],Barr2+GRK2 hCB1 response,[3]; Log [Compound] (M) -4.22186,13.3846
same,Barr2+GRK2 hCB1 response,[3]; Log [Compound] (M) -4.63927,-34.7954
same,Barr2+GRK2 hCB1 response,[3]; Log [Compound] (M) -5.05788,-53.3016
same,Barr2+GRK2 hCB1 response,[3]; Log [Compound] (M) -5.47381,-24.9041
same,Barr2+GRK2 hCB1 response,[3]; Log [Compound] (M) -5.89285,-50.1109
same,Barr2+GRK2 hCB1 response,[3]; Log [Compound] (M) -6.31878,-50.749
same,Barr2+GRK2 hCB1 response,[3]; Log [Compound] (M) -6.72585,-48.8346
same,Barr2+GRK2 hCB1 response,[3]; Log [Compound] (M) -7.14267,-52.6635
same,Barr2+GRK2 hCB1 response,[3]; Log [Compound] (M) -7.55284,-51.0681
same,Barr2+GRK2 hCB1 response,[3]; Log [Compound] (M) -8,-33.5191
same,Barr2+GRK2 hCB1 response,[3]; Log [Compound] (M) -8.22186,-13.7366
same,Barr2+GRK2 hCB1 response,[3]; Log [Compound] (M) -8.39794,-34.7954
same,Barr2+GRK2 hCB1 response,[3]; Log [Compound] (M) -8.68787,-65.1073
same,Barr2+GRK2 hCB1 response,[3]; Log [Compound] (M) -9.15521,-41.4959
same,Barr2+GRK2 hCB1 response,[3]; Log [Compound] (M) -9.61989,-48.1965
same,Barr2+GRK2 hCB1 response,[3]; Log [Compound] (M) -10.0969,-56.8114
same,Barr2+GRK2 hCB1 response,[3]; Log [Compound] (M) -10.5529,-48.8346
same,Barr2+GRK2 hCB1 response,[3]; Log [Compound] (M) -11.0177,-49.7918
same,Barr2+GRK2 hCB1 response,[3]; Log [Compound] (M) -11.4949,-48.1965
same,Barr2+GRK2 hCB1 response,[3]; Log [Compound] (M) -11.9208,-46.9202
same,Barr2+GRK2 hCB1 response,[3]; Log [Compound] (M) -12.3979,-47.8774
same,Barr2+GRK2 hCB1 response,[3]; Log [Compound] (M) -12.8861,-20.4371
same,Barr2+GRK2 hCB1 response,[3]; Log [Compound] (M) -13.3979,-11.8221
same,Gi1 hCB1,[3]; Log [Compound] (M) -4.22186,-12.5553
same,GoB hCB1,[3]; Log [Compound] (M) -4.22186,-17.0204
same,Gi1 hCB1,[3]; Log [Compound] (M) -4.63927,-11.9852
same,GoB hCB1,[3]; Log [Compound] (M) -4.63927,-18.7739
same,Gi1 hCB1,[3]; Log [Compound] (M) -5.05788,-14.0757
same,GoB hCB1,[3]; Log [Compound] (M) -5.05788,-12.8536
same,Gi1 hCB1,[3]; Log [Compound] (M) -5.47381,-12.6978
same,GoB hCB1,[3]; Log [Compound] (M) -5.47381,-15.4926
same,Gi1 hCB1,[3]; Log [Compound] (M) -5.89285,-12.001
same,GoB hCB1,[3]; Log [Compound] (M) -5.89285,-16.569
same,Gi1 hCB1,[3]; Log [Compound] (M) -6.31878,-13.0779
same,GoB hCB1,[3]; Log [Compound] (M) -6.31878,-15.128
same,Gi1 hCB1,[3]; Log [Compound] (M) -6.72585,-11.811
same,GoB hCB1,[3]; Log [Compound] (M) -6.72585,-16.3259
same,Gi1 hCB1,[3]; Log [Compound] (M) -7.14267,-11.1775
same,GoB hCB1,[3]; Log [Compound] (M) -7.14267,-15.4926
same,Gi1 hCB1,[3]; Log [Compound] (M) -7.55284,-10.8449
same,GoB hCB1,[3]; Log [Compound] (M) -7.55284,-14.0342
same,Gi1 hCB1,[3]; Log [Compound] (M) -8,-8.707
same,GoB hCB1,[3]; Log [Compound] (M) -8,-12.871
same,Gi1 hCB1,[3]; Log [Compound] (M) -8.22186,-5.46
same,GoB hCB1,[3]; Log [Compound] (M) -8.22186,-9.781
same,Gi1 hCB1,[3]; Log [Compound] (M) -8.39794,-6.126
same,GoB hCB1,[3]; Log [Compound] (M) -8.39794,-10.3709
same,Gi1 hCB1,[3]; Log [Compound] (M) -8.68787,-3.497
same,GoB hCB1,[3]; Log [Compound] (M) -8.68787,-5.77
same,Gi1 hCB1,[3]; Log [Compound] (M) -9.15521,-3.212
same,GoB hCB1,[3]; Log [Compound] (M) -9.15521,-5.544
same,Gi1 hCB1,[3]; Log [Compound] (M) -9.61989,-0.3926
same,GoB hCB1,[3]; Log [Compound] (M) -9.61989,-4.867
same,Gi1 hCB1,[3]; Log [Compound] (M) -10.0969,-1.39
same,GoB hCB1,[3]; Log [Compound] (M) -10.0969,-5.128
same,Gi1 hCB1,[3]; Log [Compound] (M) -10.5529,0.9853
same,GoB hCB1,[3]; Log [Compound] (M) -10.5529,-3.287
same,Gi1 hCB1,[3]; Log [Compound] (M) -11.0177,-1.058
same,GoB hCB1,[3]; Log [Compound] (M) -11.0177,-4.781
same,Gi1 hCB1,[3]; Log [Compound] (M) -11.4949,-2.008
same,GoB hCB1,[3]; Log [Compound] (M) -11.4949,-5.51
same,Gi1 hCB1,[3]; Log [Compound] (M) -11.9208,-4.653
same,GoB hCB1,[3]; Log [Compound] (M) -11.9208,-6.586
same,Gi1 hCB1,[3]; Log [Compound] (M) -12.3979,-2.024
same,GoB hCB1,[3]; Log [Compound] (M) -12.3979,-6.3778
same,Gi1 hCB1,[3]; Log [Compound] (M) -12.8861,-1.992
same,GoB hCB1,[3]; Log [Compound] (M) -12.8861,-4.242
same,Gi1 hCB1,[3]; Log [Compound] (M) -13,0.06671
same,GoB hCB1,[3]; Log [Compound] (M) -13,-4.798
same,Gi1 hCB1,[3]; Log [Compound] (M) cell empty,-0.7726
same,GoB hCB1,[3]; Log [Compound] (M) cell empty,-5.458
same,"% 1H-CP-55,940 displacement (mean) from single point screen",[4],80.66%
same,Ki,[5],876 nM

# Source: PMC11882969 (Nature Communications, 2025)
